Measurements: patent US20230028658A1, “EXPANDED DOSAGE REGIMENS FOR INTEGRIN INHIBITORS” (Pliant Therapeutics, Inc., priority 2021, published 2023)
Where two headings read alike, the source gives them in different places.

Experiments:
[1] = Plasma PK, Example B15 Part 1; assay type: in vivo; details: human, initial results; for Cmax / AUC(0-t): Day 7, geometric mean; for AUC(0-t): read-out: AUC0-24, ng × h/mL; for Tmax: Day 7, median
Procedure: (§1) This study was designed as a randomized, double-blind, placebo-controlled study in 48 healthy participants conducted in 2 parts. Part 1 has completed clinical conduct, and Part 2 is ongoing. In Part 1, 24 participants were randomized 1:1:1 to receive Compound 5 80 mg QD, Compound 5 160 mg QD, or placebo QD. A safety review committee reviewed the safety and PK data from Part 1 and recommended doses for Part 2. In Part 2, 24 participants were randomized 1:1:1 to receive Compound 5 320 mg QD (Compound 5 in the morning and matched placebo in the afternoon), Compound 5 160 mg twice daily (BID), or placebo BID. In both parts, samples of BALF were collected from the middle lobe or lingula via bronchoscopy prior to dosing (Day −1) and at 6 and 24 hours post morning dose on Day 7. BALF samples were assessed for TGF-β receptor kinase activity (pSMAD2/SMAD2) in pelleted cells (primarily alveolar macrophages) and additional cell material was used to measure TGF-β signaling pathway-related gene expression levels. Plasma samples were collected to measure Compound 5 concentrations and determine protein binding. Safety was monitored via open-ended AE inquiry and clinical chemistry, hematology, vital sign, and 12-lead ECG parameters.

[2] = test system: IPF-derived lung fibroblasts; assay: cell adhesion in IPF-derived lung fibroblasts (FIG. 3B); assay type: cell-based
[3] = Safety at the higher doses of Examples B14 and B15; assay type: in vivo, human; details: healthy participants, higher doses of Examples B14 and B15 (80-640 mg)
Procedure: This study was a single-center, randomized, double-blind, ascending dose, placebo-controlled study in healthy participants. Each cohort included 10 participants (8 active, 2 placebo). Study participants received single ascending doses (SAD) of Compound 5 of 120, 160, 240, 320, 480, and 640 mg and multiple ascending doses (MAD) of Compound 5 of 80, 120, 160, 240, and 320 mg. Two cohorts of participants at 160 mg were studied in the MAD phase of the study.
This study was designed as a randomized, double-blind, placebo-controlled study in 48 healthy participants conducted in 2 parts. Part 1 has completed clinical conduct, and Part 2 is ongoing. In Part 1, 24 participants were randomized 1:1:1 to receive Compound 5 80 mg QD, Compound 5 160 mg QD, or placebo QD. A safety review committee reviewed the safety and PK data from Part 1 and recommended doses for Part 2. […] BALF samples were assessed for TGF-β receptor kinase activity (pSMAD2/SMAD2) in pelleted cells (primarily alveolar macrophages) and additional cell material was used to measure TGF-β signaling pathway-related gene expression levels. […] Safety was monitored via open-ended AE inquiry and clinical chemistry, hematology, vital sign, and 12-lead ECG parameters.

lung Col1a1 expression = assay: Precision cut lung slices, chronic bleomycin, comparison with nintedanib and pirfenidone (Example B10); assay type: cell-based, Mice (C57BL/6); details: chronic bleomycin PCLS, 7 days culture, vs DMSO vehicle; FIG. 6A
Procedure: Mice (C57BL/6) were administered 3 U/kg of bleomycin (Teva Pharmaceuticals; North Wales, Pa.) on Day 0 and 1 U/kg of bleomycin on days 14, 28, 42 and 56 via oropharyngeal aspiration while under anesthesia. At day 70, 14 days following the final bleomycin insult, precision cut lung slices were obtained. Following euthanization, 2% low gelling temp agarose was injected into the mouse lungs via the trachea. […] The lobes were then subjected to precision slicing to obtain samples for culture using a microtome (Compresstome VF-300-0Z, Precisionary; Greenville, N.C.). Individual slices were distributed in a multiwell culture plate and cultured for 7 days under control (DMSO) and test compound conditions. The viability of the slices over the course of culturing was confirmed by WST-1 assay of mitochondrial activity.
During the culture period, slices in the control group were treated with DMSO and slices in the test group were treated with a DMSO solution of one of: compound 5; nintedanib; pirfenidone; a combination of nintedanib and compound 5; a combination of pirfenidone and compound 5; or the small molecule ALK5 inhibitor. Compound 5 was […] effective to equal or exceed its respective IC50 values at αvβ6 and αvβ1. […] Nintendanib and pirfenidone were analyzed at concentrations 10× their reported therapeutic concentrations.

pSMAD2/SMAD2 = pSMAD2/SMAD2 in BALF cells of healthy participants, Example B15 Part 1; assay type: in vivo, human; details: preliminary analysis
Excerpt: The primary objective of this study was to assess the pharmacodynamic changes in biomarkers of TGF-β activation in alveolar macrophages from bronchoalveolar lavage fluid (BALF) following dosing of Compound 5 for 7 days. Secondary objectives of this study were to assess the safety and tolerability of Compound 5 following dosing for 7 days, the plasma PK of Compound 5, and the PK/PD (BALF biomarkers) relationship.
as §1

bleomycin-treated mice = assay: Murine bleomycin model; assay type: in vivo, Mice (C57BL/6)
Excerpt: It has been previously shown that inhibition of αvβ6 in the lung can be detected though measurement of phospho-SMAD (pSMAD) in alveolar macrophages. Alveolar macrophages are known to operate in a unique niche in the lung, distinct from interstitial macrophages. SMAD3 is a downstream target of the active TGF-β cytokine binding its receptor and in alveolar macrophages it is phosphorylated by homoeostatic levels of TGF-β. Accordingly, it was desirable to know whether inhibition of TGF-β activation using the disclosed compounds would result in reduced SMAD2 and SMAD3 phosphorylation.
Mice (C57BL/6) were divided into healthy (n=15), vehicle-treated (n=15), and test article-treated (n=15 per dose) groups. Mice in the vehicle and test article-treated groups were administered 3 U/kg of bleomycin (Teva Pharmaceuticals; North Wales, Pa.) via oropharyngeal aspiration while under anesthesia on day 0. Healthy animals were administered water in a similar fashion. Starting on day 7, mice in the control group were administered PBS vehicle, 130 μL, by oral gavage, BID for 14 days. Also starting on day 7, mice in the test group were administered compound 5 in PBS by oral gavage, BID for 14 days, at relative dosages of 1×, 2.5× and 5×. […] From day 14 through day 21, 9 of the 15 mice were administered ^2H2O for labeling. All mice were sacrificed on day 21 and tissues were collected. Samples were prepared for analysis either directly from lung tissue, or by bronchoalveolar lavage, which washes out the bronchiolar and alveolar space with saline to produce a bronchoalveolar lavage fluid (BALF) in which 80-90% of cells are alveolar macrophages.

[4] = Binding to plasma proteins, equilibrium dialysis; assay type: in vitro ADME; details: human, plasma of dosed study participants, oral, participants' plasma Day 7
Procedure: Binding to plasma proteins was determined in participants' plasma (Day 7) using a qualified equilibrium dialysis protocol. The mean % unbound was 0.292%±0.067%, and ranged from 0.182% to 0.38% across the 20-mg cohort participants. The mean % unbound was 0.318%+0.065% and ranged from 0.22% to 0.376% across the 40-mg cohort participants. Due to the unexpected amount of plasma protein binding in these participants, it was decided to examine higher doses of the dual […] inhibitor (Compound 5) to determine whether such higher doses would compensate for the high protein binding and provide greater amounts of free drug.

## COCCN(CCCCc1ccc2c(n1)NCCC2)CC[C@H](Nc1ncnc2ccccc12)C(=O)O [Compound 5, (S)-4-((2-methoxyethyl) (4-(5,6,7,8-tetrahydro-1,8-naphthyridin-2-yl)butyl)amino)-2-(quinazolin-4-ylamino) butanoic acid]
[1]; 80 mg QD
  Cmax: 1510 ng/mL
  AUC(0-t): 25400 ng·h/mL
  Tmax: 6 h
[1]; 160 mg QD
  Cmax: 2990 ng/mL
  AUC(0-t): 49900 ng·h/mL
  Tmax: 5 h
[2]
  cell adhesion in the IPF-derived lung fibroblasts: substantially inhibited
[3]
  adverse effects: no significant adverse effects
Lung Col1a1 expression
  lung slice Col1a1 expression: substantial, statistically significant (p<0.01 vs vehicle) decrease
pSMAD2/SMAD2; 80 mg QD 7 days, 6 hours post dose Day 7
  reduction in pSMAD2 levels (pSMAD2/SMAD2 ratio): 41.2%
pSMAD2/SMAD2; 80 mg QD 7 days, 24 hours post dose Day 7
  reduction in pSMAD2 levels (pSMAD2/SMAD2 ratio): 36.6%
pSMAD2/SMAD2; 160 mg QD 7 days, 6 hours post dose Day 7
  reduction in pSMAD2 levels (pSMAD2/SMAD2 ratio): 57.8%
pSMAD2/SMAD2; 160 mg QD 7 days, 24 hours post dose Day 7
  reduction in pSMAD2 levels (pSMAD2/SMAD2 ratio): 53.2%
bleomycin-treated mice; 14 days after bleomycin, […] dose PO BID 1.5 days, FIGS. 4J, 4K
  pSMAD3 levels in lung and BALF cells vs. plasma drug exposure: close inverse relationship
bleomycin-treated mice; bleomycin mice, 1× and 5× (p<0.01 vs vehicle), FIG. 4D
  accumulated new collagen (percentage of lung collagen containing 2H-labeled hydroxyproline): dose-dependent reduction
bleomycin-treated mice; bleomycin mice, 1×, […], 5× (p<0.05 vs vehicle), FIG. 4E
  total pulmonary collagen, as measured by μg of hydroxyproline: reduction in total pulmonary collagen
bleomycin-treated mice; bleomycin mice, 1×, […], 5×, FIG. 4I
  percent total collagen area in second harmonic generation lung images: substantial, statistically significant dose-dependent reduction
bleomycin-treated mice; bleomycin mice, oral gavage BID 14 days, 1×, […], 5×, FIG. 4C
  pSMAD3 levels in the lung (SMAD3 phosphorylation): approximately 50 % of the untreated levels
[4]; 20 mg, 20-mg cohort, read-out: % unbound, range across participants
  fraction unbound: 0.00182 to 0.0038
[4]; 20 mg, 20-mg cohort, read-out: mean % unbound
  fraction unbound: 0.00292
[4]; 40 mg, 40-mg cohort, read-out: % unbound, range across participants
  fraction unbound: 0.0022 to 0.00376
[4]; 40 mg, 40-mg cohort, read-out: mean % unbound
  fraction unbound: 0.00318
